What all share (type): cell-based
One assay deals with IL-6. The experiment in a line: Whole bovine blood assay, LPS-induced IL-6. As to conditions: fresh whole bovine blood, LPS stimulant; top drug concentration 250 μM.
In the next assay the test system is IL-1β. As to the kind of experiment: Whole bovine blood assay, LPS-induced IL-1β (inhibition / overstimulation). As to conditions: drug concentration giving overstimulation (OS) of LPS-induced IL-1β, top concentration 250 μM. As for the experimental part:
Whole Blood Assay-Fresh whole bovine blood samples were collected into heparinized vacutainer tubes. Assay plates were prepared with 25 μL of drug diluted in PBS at varying concentration in 96 round bottom wells, then 225 μL of blood was added and plates incubated at 37° C. for 4 hours. Cells were stimulated with LPS (or PBS for controls) by adding 25 μL to the plates at a final concentration of 1 μg/mL and incubated at 37° C. for 18 hours. To collect plasma, plates were centrifuged at 2,000×g for 10 minutes and 100 μL of supernatant was transferred to a 96 well polypropylene plate that was sealed and stored at −80° C. Samples were assayed for cytokines using the Meso Scale Discovery (MSD) platform (described below). This same MSD platform was used to assess cytokines in the plasma collected directly from drug treated animals.
Cytokine Detection—An MSD U-Plex cytokine assay was developed following the MSD U-Plex protocol guide and included biotinylated capture antibodies against: bovine Interleukin (IL)-1β (Biorad), bovine IL-6 (R&D Systems) and bovine tumor necrosis factor (TNF)-α (R&D Systems). The anti-IL-1β antibody was biotinylated using EZ-Link Sulfo-NHS-Biotin (Thermo Scientific) at a challenge ratio of 1:20 according to manufacturer instructions. Assay calibrators (Kingfisher) were diluted to a concentration of […] in control lithium heparin plasma, followed by 4-fold serial dilutions into plasma. The detection antibodies were sulfo-tagged following the MSD quick guide conjugation protocol using a challenge ratio of 1:20. Antibodies were used at the following concentrations: anti-IL-1β at 1 μg/mL, anti-IL-6 at 1 μg/mL and anti-TNF-α at 0.5 μg/mL. Cytokines were quantified according to manufacturer's instructions using a chemiluminescent readout. In brief, 0.5 mL of all biotinylated antibodies were diluted to 10 μg/mL with Diluent 100 and paired to their respective linkers by adding 750 μL of supplied Linker solution and incubated for 30 minutes followed by addition of Stop solution for another 30 minutes. The linked antibodies were then diluted 10-fold into Stop solution. Plates were coated by adding 50 μL of antibody solutions per well and incubated covered and shaking for 1 hour at room temperature. Plates were washed three times with PBS/Tween20 prior to samples or standards being added at 30 μL per well and incubated as above. Plates were washed three times before detection antibodies were added along with 2% goat and rabbit serum to block and incubated same as above. Plates were washed a further three times before addition of 150 μL 2X Read buffer and read immediately on the SI6000 instrument (MSD). For soluble protein levels, a BCA protein kit (Thermofisher) was used. The cytokine concentrations (pg/mL) were normalized to the total protein levels for each sample. [Bassel et. al., BMC Veterinary Research (2020) 16:168]
Therefore, a fresh whole bovine blood assay was developed with LPS as a stimulant (TLR-4 agonist) and with IL-1β and TNF-α as the read-out. Compounds of the invention were evaluated against a positive control for their ability to inhibit LPS-induced IL-1β and TNF-α as an overall evaluation of relative potency and modulation of target pathways.
For M9, the top dose of 500 μM was not high enough to determine an overstimulation of IL-1 B which was recorded as not applicable (n/a). The enhanced response indicates increased concentration of IL-1β cytokine at the drug concentration indicated. This is generally observed when compounds are out of range (high concentration) and stimulate a cellular toxicity signal. Further data supporting this hypothesis includes murine studies using a P. multocida infection in mice.
TNFα is a cell signaling protein, cytokine, that plays a key role in both acute and chronic inflammation. […]

The next assay has as its system TNF-α. As to the kind of experiment: Whole bovine blood assay, LPS-induced TNF-α. As to conditions: fresh whole bovine blood, LPS stimulant; top drug concentration 250 μM. In outline: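 Fresh heparinized bovine whole blood was preincubated with compound 4 h at 37 °C, then stimulated with LPS (final 1 μg/mL) for 18 h at 37 °C. Plasma TNF-α was quantified by MSD U-Plex chemiluminescent immunoassay, normalized to total protein (BCA), and IC50 taken for LPS-induced TNF-α inhibition.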

As for `CC[C@H]1OC(=O)[C@H](C)[C@@H](O)[C@H](C)[C@@H](O[C@@H]2O[C@H](C)C[C@H](N(C)S(=O)(=O)C3CC3)[C@H]2Oc2ccccc2)[C@](C)(O)C[C@@H](C)CN[C@H](C)[C@@H](O)[C@]1(C)O` [Example A-32], the IC50 in the assay on IL-6 was 167 µM. In addition, in the assay on IL-1β, the minimal effective concentration worked out at 100 µM.
In the same order, the values of `CC[C@H]1OC(=O)[C@H](C)[C@@H](O[C@H]2C[C@@](C)(OC)[C@](O)(CNCCc3ccncc3)[C@H](C)O2)[C@H](C)[C@@H](O[C@@H]2O[C@H](C)C[C@H](N(C)S(=O)(=O)c3ccc(Cl)cc3)[C@H]2O)[C@](C)(O)C[C@@H](C)CN[C@H](C)[C@@H](O)[C@]1(C)O` [Example B-29] are 54 µM and 12 µM.
In the same order, the values of `CC[C@H]1OC(=O)[C@H](C)[C@@H](O[C@H]2C[C@@](C)(OC)[C@](O)(CNCCC3CCOCC3)[C@H](C)O2)[C@H](C)[C@@H](O[C@@H]2O[C@H](C)C[C@H](N(C)S(=O)(=O)c3ccc(Cl)cc3)[C@H]2O)[C@](C)(O)C[C@@H](C)CN[C@H](C)[C@@H](O)[C@]1(C)O` [Example B-34] are 20 µM and 6 µM.
Compound `CC[C@H]1OC(=O)[C@H](C)[C@@H](O[C@H]2C[C@@](C)(OC)[C@](O)(CNCCCN(C)C)[C@H](C)O2)[C@H](C)[C@@H](O[C@@H]2O[C@H](C)C[C@H](N(C)S(=O)(=O)Nc3ccc(C(F)(F)F)cc3)[C@H]2O)[C@](C)(O)C[C@@H](C)CN[C@H](C)[C@@H](O)[C@]1(C)O` [Example B-74] registered an IC50 in the assay on TNF-α of 33 µM. This compound had a minimal effective concentration in the assay with IL-1β of 16 µM.
In the same order, the values of `CC[C@H]1OC(=O)[C@H](C)[C@@H](O[C@H]2C[C@@](C)(OC)[C@](O)(CNCCCN3CCCCC3)[C@H](C)O2)[C@H](C)[C@@H](O[C@@H]2O[C@H](C)C[C@H](N(C)S(=O)(=O)Nc3ccc(C(F)(F)F)cc3)[C@H]2O)[C@](C)(O)C[C@@H](C)CN[C@H](C)[C@@H](O)[C@]1(C)O` [Example B-75] are 31 µM and greater than 250 µM.
In the same order, the values of `CC[C@H]1OC(=O)[C@H](C)[C@@H](O[C@H]2C[C@@](C)(OC)[C@](O)(CNCCNC(C)=O)[C@H](C)O2)[C@H](C)[C@@H](O[C@@H]2O[C@H](C)C[C@H](N(C)S(=O)(=O)Nc3ccc(C(F)(F)F)cc3)[C@H]2O)[C@](C)(O)C[C@@H](C)CN[C@H](C)[C@@H](O)[C@]1(C)O` [Example B-81] are 22 µM and 15 µM.
On the same counts, the results for `CC[C@H]1OC(=O)[C@H](C)[C@@H](O[C@H]2C[C@@](C)(OC)[C@](O)(CNCCCN3CCCC3=O)[C@H](C)O2)[C@H](C)[C@@H](O[C@@H]2O[C@H](C)C[C@H](N(C)S(=O)(=O)Nc3ccc(C(F)(F)F)cc3)[C@H]2O)[C@](C)(O)C[C@@H](C)CN[C@H](C)[C@@H](O)[C@]1(C)O` [Example B-87] are 17 µM and 9 µM.
In the assay on IL-6, `CCCNC[C@]1(O)[C@H](C)O[C@@H](O[C@H]2[C@H](C)[C@@H](O[C@@H]3O[C@H](C)C[C@H](N(C)S(=O)(=O)c4cnc(Cl)c(Br)c4)[C@H]3Oc3ccc(OC)cc3)[C@](C)(O)C[C@@H](C)CN[C@H](C)[C@@H](O)[C@](C)(O)[C@@H](CC)OC(=O)[C@@H]2C)C[C@@]1(C)OC` [Example B-117] returned an IC50 of 142 µM. In the assay on IL-1β, this compound came in with a minimal effective concentration of 16 µM.
On the same counts, the results for `CCCNC[C@]1(O)[C@H](C)O[C@@H](O[C@H]2[C@H](C)[C@@H](O[C@@H]3O[C@H](C)C[C@H](N(C)S(=O)(=O)c4cnn(-c5ccc(C(F)(F)F)cn5)c4)[C@H]3Oc3ccc(OC)cc3)[C@](C)(O)C[C@@H](C)CN[C@H](C)[C@@H](O)[C@](C)(O)[C@@H](CC)OC(=O)[C@@H]2C)C[C@@]1(C)OC` [Example B-123] are 4 µM and 6 µM.
In the same order, the values of `CCCNC[C@]1(O)[C@H](C)O[C@@H](O[C@H]2[C@H](C)[C@@H](O[C@@H]3O[C@H](C)C[C@H](N(C)S(=O)(=O)c4cccnc4Cl)[C@H]3Oc3ccc(OC)cc3)[C@](C)(O)C[C@@H](C)CN[C@H](C)[C@@H](O)[C@](C)(O)[C@@H](CC)OC(=O)[C@@H]2C)C[C@@]1(C)OC` [Example B-124] are 4 µM and 6 µM.
In the assay with TNF-α, `CC[C@H]1OC(=O)[C@H](C)[C@@H](O[C@H]2C[C@@](C)(OC)[C@](O)(CNCCS(C)(=O)=O)[C@H](C)O2)[C@H](C)[C@@H](O[C@@H]2O[C@H](C)C[C@H](N(C)S(=O)(=O)c3ccc(C(F)(F)F)cc3)[C@H]2O)[C@](C)(O)C[C@@H](C)CN[C@H](C)[C@@H](O)[C@]1(C)O` [Example B-126] registered an IC50 of 68 µM. This compound also displayed a minimal effective concentration in the assay with IL-1β of 11 µM.
`CC[C@H]1OC(=O)[C@H](C)[C@@H](O[C@H]2C[C@@](C)(OC)[C@](O)(CNCCOC(F)(F)F)[C@H](C)O2)[C@H](C)[C@@H](O[C@@H]2O[C@H](C)C[C@H](N(C)S(=O)(=O)Nc3ccc(C(F)(F)F)cc3)[C@H]2O)[C@](C)(O)C[C@@H](C)CN[C@H](C)[C@@H](O)[C@]1(C)O` [Example B-129] gave an IC50 with TNF-α of 10 µM. The minimal effective concentration in the assay on IL-1β was determined as 2 µM.
In the assay with IL-6, `CCCNC[C@]1(O)[C@H](C)O[C@@H](O[C@H]2[C@H](C)[C@@H](O[C@@H]3O[C@H](C)C[C@H](N(C)S(=O)(=O)c4ccccc4)[C@H]3Oc3cccc(CO)c3)[C@](C)(O)C[C@@H](C)CN[C@H](C)[C@@H](O)[C@](C)(O)[C@@H](CC)OC(=O)[C@@H]2C)C[C@@]1(C)OC` [Example B-133] returned an IC50 of 24 µM. For the same compound, the minimal effective concentration in the assay on IL-1β was determined as 16 µM.
For the compound `CCCNC[C@]1(O)[C@H](C)O[C@@H](O[C@H]2[C@H](C)[C@@H](O[C@@H]3O[C@H](C)C[C@H](N(C)S(N)(=O)=O)[C@H]3O)[C@](C)(O)C[C@@H](C)CN(CCC)[C@H](C)[C@@H](O)[C@](C)(O)[C@@H](CC)OC(=O)[C@@H]2C)C[C@@]1(C)OC` [Example B-158], it took 102 µM to reach half-maximal inhibition in the assay on TNF-α (IC50). The compound also yielded a minimal effective concentration in the assay on IL-1β greater than 250 µM.
As to `CC[C@H]1OC(=O)[C@H](C)[C@@H](O[C@H]2C[C@@](C)(OC)[C@](O)(CN3CCC3)[C@H](C)O2)[C@H](C)[C@@H](O[C@@H]2O[C@H](C)C[C@H](N(C)S(=O)(=O)c3ccc(Cl)cc3)[C@H]2O)[C@](C)(O)C[C@@H](C)CN[C@H](C)[C@@H](O)[C@]1(C)O` [Example C-2], half-maximal inhibition in the assay on IL-6 (IC50) was put at 13 µM. The compound further displayed a minimal effective concentration in the assay with IL-1β of 6 µM.
`CCCN1C[C@H](C)C[C@@](C)(O)[C@H](O[C@@H]2O[C@H](C)C[C@H](N(C)S(N)(=O)=O)[C@H]2O)[C@@H](C)[C@H](O[C@H]2C[C@@](C)(OC)[C@](O)(CN3CCCCC3)[C@H](C)O2)[C@@H](C)C(=O)O[C@H](CC)[C@@](C)(O)[C@H](O)[C@H]1C` [Example C-17] had a half-inhibitory concentration (IC50) with TNF-α of 23 µM. The minimal effective concentration in the assay with IL-1β is reported as 250 µM.
On the same counts, the results for `CC[C@H]1OC(=O)[C@H](C)[C@@H](O[C@H]2C[C@@](C)(OC)[C@](O)(CN3CCCCC3)[C@H](C)O2)[C@H](C)[C@@H](O[C@@H]2O[C@H](C)C[C@H](N(Cc3cccnc3)S(=O)(=O)Nc3ccc(C(F)(F)F)cc3)[C@H]2O)[C@](C)(O)C[C@@H](C)CN[C@H](C)[C@@H](O)[C@]1(C)O` [Example C-39] are 15 µM and 6 µM.

In general, IC50 refers to the concentration that gives 50% inhibition. Usually minimal effective concentration stands for the smallest amount tested that counted as effective. A higher minimal effective concentration goes with a need for much substance.
